What was measured:
Cdk2(S181C) (C177A) = biological target: T1, Cdk2(S181C) (C177A) (Homo sapiens, UniProt P24941, C177A/S181C); assay: Kinetic thiol consumption assay with Cdk2 mutant S181C; assay type: binding; design: key to Rate enhancement, Cdk2 S181C: rate constant with Cdk2 ÷ rate constant with model thiol (fold); conditions: additional mutation C177A; for Rate constant with Cdk2 S181C: Protein: Cdk2, cysteine position S181C, in h^-1
T1 construct: poly-histidine; made in house; host or cells: E. coli
In short: (§1)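 5 μM thiol, degassed phosphate pH 8, 2% v/v immobilized TCEP beads; 1 h RT; fluorescence ex 380/em 470 nm; normalized vs DMSO/thiol-only; first-order exponential decay fit → rate constant; Cdk2 k / model-thiol k = rate enhancement per acrylamide.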

[1] = biological target: T2, human cyclin-dependent kinase 2 (Cdk2) (Homo sapiens, UniProt P24941); assay: Kinetic thiol consumption assay with wild type Cdk2 (C177); assay type: binding; design: key to Rate enhancement, Cdk2 WT: k(Cdk2) divided by k(model thiol); Rate constant with Cdk2 (k(Cdk2)): unit not given here; conditions: for Rate constant with Cdk2 (k(Cdk2)): 500 μM ligand, 5 μM thiol, phosphate buffer pH 8; for Rate enhancement, Cdk2 WT: no additional mutations; for Rate constant with Cdk2 WT: Protein: Cdk2, cysteine position WT, in h^-1; for k(Cdk2)/k(Cdk2_mut) rate enhancement: model thiol Cdk2[C177A, F80C, K278C]; for k(Cdk2)/k(GSH) rate enhancement: model thiol glutathione
T2 construct: poly-histidine; made in house; host or cells: E. coli
In short: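 Rate enhancement: first-order decay constant with Cdk2 over that with a model thiol. Thiols (5 μM, degassed phosphate buffer pH 8, immobilized TCEP) were incubated with acrylamides at room temperature, and thiol consumption followed by fluorescence at 380/470 nm, normalized to DMSO control. Cdk2 was His-tagged, E. coli-expressed, with one surface cysteine (C177).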

Cdk2(S276C) (C177A) = biological target: T3, Cdk2(S276C) (C177A) (Homo sapiens, UniProt P24941, C177A/S276C); assay: Kinetic thiol consumption assay with Cdk2 mutant S276C; assay type: binding; design: key to Rate enhancement, Cdk2 S276C: rate constant with Cdk2 ÷ rate constant with model thiol (fold); conditions: additional mutation C177A; for Rate constant with Cdk2 S276C: Protein: Cdk2, cysteine position S276C, in h^-1
T3 construct: poly-histidine; made in house; host or cells: E. coli
In short: as §1

Cdk2(T182C) (C177A) = biological target: T4, Cdk2(T182C) (C177A) (Homo sapiens, UniProt P24941, C177A/T182C); assay: Kinetic thiol consumption assay with Cdk2 mutant T182C; assay type: binding; design: key to Rate enhancement, Cdk2 T182C: rate constant with Cdk2 ÷ rate constant with model thiol (fold); conditions: additional mutation C177A; for Rate constant with Cdk2 T182C: Protein: Cdk2, cysteine position T182C, in h^-1
T4 construct: poly-histidine; made in house; host or cells: E. coli
In short: as §1

Cdk2[C177A, F80C, K278C] = biological target: T5, Cdk2[C177A, F80C, K278C] (Homo sapiens, UniProt P24941, C177A/F80C/K278C); assay: Kinetic thiol consumption assay with mutant Cdk2 as model thiol; assay type: binding; design: unit not given here; conditions: 500 μM ligand, 5 μM thiol, phosphate buffer pH 8
T5 construct: poly-histidine; made in house; host or cells: E. coli
In short: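 Model thiol: His-tagged human Cdk2 C177A/F80C/K278C (two engineered surface cysteines), E. coli-expressed, 5 μM in degassed phosphate buffer pH 8 with immobilized TCEP beads (2% v/v). Fluorescence (ex/em 380/470 nm) followed over time at room temperature, normalized to DMSO/thiol control. First-order decay fit gives rate constants.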

Cdk2(C177A, F80C) = biological target: T6, Cdk2(C177A, F80C) (Homo sapiens, UniProt P24941, C177A/F80C); assay: Kinetic thiol consumption assay with Cdk2 mutant F80C, incl. kobs versus concentration (Kd, k2); assay type: binding; design: key to Rate enhancement, Cdk2 F80C: Cdk2 rate constant divided by model-thiol rate constant; conditions: additional mutation C177A; for Rate constant with Cdk2 F80C: Protein: Cdk2, cysteine position F80C, in h^-1
T6 construct: poly-histidine; made in house; host or cells: E. coli
In short: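 His-tagged Cdk2(C177A/F80C) from E. coli or model thiol, 5 μM in degassed phosphate buffer pH 8 with TCEP beads, reacted with acrylamide ligands; fluorescence (ex/em 380/470 nm) normalized to DMSO control and fitted to first-order decay for kobs. Kd and k2 obtained from hyperbolic fit of kobs versus ligand concentration.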

Cdk2(H71C) (C177A) = biological target: T7, Cdk2(H71C) (C177A) (Homo sapiens, UniProt P24941, C177A/H71C); assay: Kinetic thiol consumption assay with Cdk2 mutant H71C; assay type: binding; design: key to Rate enhancement, Cdk2 H71C: rate constant with Cdk2 ÷ rate constant with model thiol (fold); conditions: additional mutation C177A; for Rate constant with Cdk2 H71C: Protein: Cdk2, cysteine position H71C, in h^-1
T7 construct: poly-histidine; made in house; host or cells: E. coli
In short: as §1

[2] = Kinetic thiol consumption assay with model thiol glutathione; assay type: physicochemical; design: Rate constant with glutathione (k(GSH)): unit not given here; conditions: for Rate constant with glutathione (k(GSH)): 500 μM ligand, 5 μM thiol, phosphate buffer pH 8; for Rate constant with Glutathione: Protein: Glutathione, cysteine position NA, in h-1
In short: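 Rate constants for acrylamide reaction with 5 μM glutathione come from first-order exponential fits of normalized fluorescence decay (ex 380, em 470 nm). Reactions run in degassed phosphate buffer at pH 8 containing TCEP beads, room temperature.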

Cdk2(R122C) (C177A) = biological target: T8, Cdk2(R122C) (C177A) (Homo sapiens, UniProt P24941, C177A/R122C); assay: Kinetic thiol consumption assay with Cdk2 mutant R122C; assay type: binding; design: key to Rate enhancement, Cdk2 R122C: rate constant with Cdk2 ÷ rate constant with model thiol (fold); conditions: additional mutation C177A; for Rate constant with Cdk2 R122C: Protein: Cdk2, cysteine position R122C, in h-1
T8 construct: poly-histidine; made in house; host or cells: E. coli
In short: as §1

Cdk2(N272C) (C177A) = biological target: T9, Cdk2(N272C) (C177A) (Homo sapiens, UniProt P24941, C177A/N272C); assay: Kinetic thiol consumption assay with Cdk2 mutant N272C; assay type: binding; design: key to Rate enhancement, Cdk2 N272: rate constant with Cdk2 ÷ rate constant with model thiol (fold); conditions: for Rate enhancement, Cdk2 N272: Cdk2 N272, additional mutation C177A; for Rate constant with Cdk2 N272C: Protein: Cdk2, cysteine position N272C, additional mutation C177A, in h^-1
T9 construct: poly-histidine; made in house; host or cells: E. coli
In short: as §1

SMILES	Rate enhancement, Cdk2 S181C (Cdk2(S181C) (C177A))	Rate constant with Cdk2 S181C (Cdk2(S181C) (C177A))	Rate constant with Cdk2 (k(Cdk2)) [1]	Rate enhancement, Cdk2 WT [1]	Rate constant with Cdk2 WT [1]	k(Cdk2)/k(Cdk2_mut) rate enhancement [1]	k(Cdk2)/k(GSH) rate enhancement [1]	Rate enhancement, Cdk2 S276C (Cdk2(S276C) (C177A))	Rate constant with Cdk2 S276C (Cdk2(S276C) (C177A))	Rate enhancement, Cdk2 T182C (Cdk2(T182C) (C177A))	Rate constant with Cdk2 T182C (Cdk2(T182C) (C177A))	Rate constant with Cdk2[C177A, F80C, K278C] (k(Cdk2_mut)) (Cdk2[C177A, F80C, K278C])	Rate enhancement, Cdk2 F80C (Cdk2(C177A, F80C))	Rate enhancement, Cdk2 H71C (Cdk2(H71C) (C177A))	Rate enhancement, Cdk2 R122C (Cdk2(R122C) (C177A))	Rate constant with Cdk2 R122C (Cdk2(R122C) (C177A))	Rate enhancement, Cdk2 N272 (Cdk2(N272C) (C177A))	Rate constant with Cdk2 N272C (Cdk2(N272C) (C177A))	Rate constant with glutathione (k(GSH)) [2]	Rate constant with Glutathione [2]	further results
C=CC(=O)Nc1cccc(Nc2ncnc3cc(OC)c(OC)cc23)c1 [GC248]	1.037	0.01548	0.01014	0.9116	0.01361	0.65	0.6783	0.1863	0.002781	34.92	0.5214	0.0156	0.1205	0.6345	0.8326	0.01243	1.058	0.01579	0.01495	0.01493	Rate constant with Cdk2 F80C (Cdk2(C177A, F80C)): 0.001799; Rate constant with Cdk2 H71C (Cdk2(H71C) (C177A)): 0.009473
C=CC(=O)Nc1sc2c(c1C(=O)NC1CC1)CCC2 [CA-155]	0.7715	0.2049	0.743	2.797	0.743	0.5342	2.774	0.6924	0.1839	2.615	0.6945	1.391	0	1.102	1.407	0.3736	0.715	0.1899	0.2678	0.2656	Rate constant with Cdk2 H71C (Cdk2(H71C) (C177A)): 0.2926

Now from value to compound, other results behind:

Rate enhancement, Cdk2 S181C (Cdk2(S181C) (C177A))	Rate constant with Cdk2 S181C (Cdk2(S181C) (C177A))	Rate constant with Cdk2 (k(Cdk2)) [1]	Rate enhancement, Cdk2 WT [1]	Rate constant with Cdk2 WT [1]	k(Cdk2)/k(Cdk2_mut) rate enhancement [1]	k(Cdk2)/k(GSH) rate enhancement [1]	Rate enhancement, Cdk2 S276C (Cdk2(S276C) (C177A))	Rate constant with Cdk2 S276C (Cdk2(S276C) (C177A))	Rate enhancement, Cdk2 T182C (Cdk2(T182C) (C177A))	Rate constant with Cdk2 T182C (Cdk2(T182C) (C177A))	Rate constant with Cdk2[C177A, F80C, K278C] (k(Cdk2_mut)) (Cdk2[C177A, F80C, K278C])	Rate enhancement, Cdk2 F80C (Cdk2(C177A, F80C))	Rate enhancement, Cdk2 H71C (Cdk2(H71C) (C177A))	Rate enhancement, Cdk2 R122C (Cdk2(R122C) (C177A))	Rate constant with Cdk2 R122C (Cdk2(R122C) (C177A))	Rate enhancement, Cdk2 N272 (Cdk2(N272C) (C177A))	Rate constant with Cdk2 N272C (Cdk2(N272C) (C177A))	SMILES	Rate constant with glutathione (k(GSH)) [2]	Rate constant with Glutathione [2]	further results
0.6713	0.005455	0.00303	0.6141	0.00499	0.7455	0.3806	0.2024	0.001645	1.338	0.01087	0.00407	0.7204	0	0.3699	0.003006	0.1121	0.0009109	C=CC(=O)N1CCCCCC1c1ccc(N(C)C)cc1 (stereo not shown) [EL-1140]	0.00797	0.008126	Rate constant with Cdk2 F80C (Cdk2(C177A, F80C)): 0.005854
0.2548	0.003565	0.00347	0.248	0.003469	1.136	0.2735	0.3527	0.004934	0.8134	0.01138	0.00305	0.3783	0	0.501	0.007009	0.2334	0.003265	C=CC(=O)N1CC2CCN(Cc3ccccc3)C2C1 (stereo not shown) [CA-190]	0.01268	0.01399	Rate constant with Cdk2 F80C (Cdk2(C177A, F80C)): 0.005293
1.095	0.008545	0.00543	1.211	0.009448	4.114	1.074	0.3503	0.002734	2.301	0.01796	0.00132	0.2601	0	0.2272	0.001773	0.6405	0.004999	C=CC(=O)NC1CC(NC(=O)C2CCC2)C1 (stereo not shown) [CA-202]	0.00506	0.007805	Rate constant with Cdk2 F80C (Cdk2(C177A, F80C)): 0.00203

Source: US11415579B2, “Assay for measuring a rate of reaction between a target and a ligand candidate” (Imperial College Innovations Ltd., priority 2016, dated 2022)
